Values quoted from earlier work in patent US20260216071A1, “NANOPARTICULATE FORMULATION” (NEWIMMUNE II, LLC, priority 2022, published 2026).

SMILES: CCCCc1nc(Cl)c(CO)n1Cc1ccc(-c2ccccc2-c2nn[nH]n2)cc1 [Losartan, (2-butyl-4-chloro-1-{[2′-(1H-tetrazol-5-yl)biphenyl-4-yl]methyl}-1H-imidazol-5-yl) methanol]
- absorption following oral administration: well absorbed
